# Data taken from patent US11547681B2, “N-acylethanolamide derivatives and uses thereof” (ELIEM THERAPEUTICS, INC., priority 2016, dated 2023).
# Read-outs that look alike come from different tables or passages of the source.
# Assay: Simulated intestinal fluid (SIF) stability in the presence of various enzymes
# Format: in vitro ADME
# Details: 1 μM
# Method: (§1) Studies were carried out in simulated intestinal fluid in the presence of various enzymes. Simulated intestinal fluid was prepared by dissolving 6.8 g of monobasic potassium phosphate in 1.0 L of water. Aliquots of this solution were taken and the pH was adjusted to 6.8. Individual enzymes were then spiked into aliquots for each experiment. A DMSO stock was first prepared for the test article. Aliquots of the DMSO solution were dosed into 700 μL of matrix, which had been pre-warmed to 37° C., at a final test article concentration of 1 μM. […] Samples were stored at 4° C. until the end of the experiment. After the final time point was sampled, the plate was mixed and then centrifuged at 3,000 rpm for 10 minutes. Calibration standards were prepared in matched matrix. […] Analytical conditions are outlined in Appendix 8-1.
# as §1, with “10-1.” for “8-1.”
# Studies were carried out in simulated intestinal fluid in the presence of various enzymes. Simulated intestinal fluid was prepared by dissolving 6.8 g of monobasic potassium phosphate in 1.0 L of water. Aliquots of this solution were taken and the pH was adjusted to 6.8. Individual enzymes were then spiked into aliquots for each experiment. A DMSO stock was first prepared for test article. Aliquots of the DMSO solution were dosed into 700 μL of matrix, which had been pre-warmed to 37° C., at a final test article concentration of 1 μM. […] Samples were stored at 4° C. until the end of experiment. After final time point was sampled, the plate was mixed and then centrifuged at 3,000 rpm for 10 minutes. Calibration standards were prepared in matched matrix. […] Analytical conditions are outlined in Appendix 13-1.
# as §1, with “17-1.” for “8-1.”
# [1] = SIF + Carboxypeptidase A, 0 min
# [2] = SIF + Carboxypeptidase A, 15 min
# [3] = SIF + Carboxypeptidase A, 30 min
# [4] = SIF + Carboxypeptidase A, 60 min
# [5] = SIF + Carboxypeptidase A, 120 min
# [6] = SIF + Carboxypeptidase B, 0 min
# [7] = SIF + Carboxypeptidase B, 15 min
# [8] = SIF + Carboxypeptidase B, 30 min
# [9] = SIF + Carboxypeptidase B, 60 min
# [10] = SIF + Carboxypeptidase B, 120 min
# [11] = simulated intestinal fluid with carboxypeptidase A, pH 6.8, SIF + Carboxypeptidase A, read-out: Half-life
# [12] = simulated intestinal fluid with carboxypeptidase B, pH 6.8, SIF + Carboxypeptidase B, read-out: Half-life
# [13] = simulated intestinal fluid with chymotrypsin, pH 6.8, SIF + Chymotrypsin, read-out: Half-life
# [14] = simulated intestinal fluid with elastase, pH 6.8, SIF + Elastase, read-out: Half-life
# [15] = simulated intestinal fluid with pancreatin, pH 6.8, SIF + Pancreatin, read-out: Half-life
# [16] = simulated intestinal fluid with trypsin, pH 6.8, SIF + Trypsin, read-out: Half-life
SMILES,% Remaining of Initial (n = 1) [1],% Remaining of Initial (n = 1) [2],% Remaining of Initial (n = 1) [3],% Remaining of Initial (n = 1) [4],% Remaining of Initial (n = 1) [5],% Remaining of Initial (n = 1) [6],% Remaining of Initial (n = 1) [7],% Remaining of Initial (n = 1) [8],% Remaining of Initial (n = 1) [9],% Remaining of Initial (n = 1) [10],"% Remaining of Initial (n = 1) (SIF + Chymotrypsin, 0 min)","% Remaining of Initial (n = 1) (SIF + Chymotrypsin, 15 min)","% Remaining of Initial (n = 1) (SIF + Chymotrypsin, 30 min)","% Remaining of Initial (n = 1) (SIF + Chymotrypsin, 60 min)","% Remaining of Initial (n = 1) (SIF + Chymotrypsin, 120 min)","% Remaining of Initial (n = 1) (SIF + Elastase, 0 min)","% Remaining of Initial (n = 1) (SIF + Elastase, 15 min)","% Remaining of Initial (n = 1) (SIF + Elastase, 30 min)","% Remaining of Initial (n = 1) (SIF + Elastase, 60 min)","% Remaining of Initial (n = 1) (SIF + Elastase, 120 min)",further results
CCCCCCCCCCCCCCCC(=O)NCCOC(=O)CCC [Compound I-2],100%,79%,70%,56%,43%,100%,75%,54%,40%,17%,100%,78%,70%,60%,58%,100%,61%,42%,30%,28%,"% Remaining of Initial (n = 1) (SIF + Pancreatin, 0 min): 100%; % Remaining of Initial (n = 1) (SIF + Pancreatin, 15 min): 93%; % Remaining of Initial (n = 1) (SIF + Pancreatin, 30 min): 91%; % Remaining of Initial (n = 1) (SIF + Pancreatin, 60 min): 98%; % Remaining of Initial (n = 1) (SIF + Pancreatin, 120 min): 60%; % Remaining of Initial (n = 1) (SIF + Trypsin, 0 min): 100%; % Remaining of Initial (n = 1) (SIF + Trypsin, 15 min): 82%; % Remaining of Initial (n = 1) (SIF + Trypsin, 30 min): 72%; % Remaining of Initial (n = 1) (SIF + Trypsin, 60 min): 75%; % Remaining of Initial (n = 1) (SIF + Trypsin, 120 min): 46%; half-life at 1 μM [11]: 92 min; half-life at 1 μM [12]: 43 min; half-life at 1 μM (simulated intestinal fluid with chymotrypsin, pH 6.8, SIF + Chymotrypsin, outside the sampled time range, read-out: Half-life, calculated (in parentheses)): 144 min; half-life at 1 μM [13]: > 120 min; half-life at 1 μM [14]: 37 min; half-life at 1 μM (simulated intestinal fluid with pancreatin, pH 6.8, SIF + Pancreatin, outside the sampled time range, read-out: Half-life, calculated (in parentheses)): 205 min; half-life at 1 μM [15]: > 120 min; half-life at 1 μM (simulated intestinal fluid with trypsin, pH 6.8, SIF + Trypsin, outside the sampled time range, read-out: Half-life, calculated (in parentheses)): 121 min; half-life at 1 μM [16]: > 120 min"
"CCCCCCCCCCCCCCCC(=O)NCCOC(=O)CCC(=O)OCC(COC(=O)CCCCCCC)OC(=O)CCCCCCC (stereo not drawn) [Compound I-3, PEA-Succinate-Glycerol-Di-Caprylic]",100%,76%,66%,36%,20%,100%,86%,77%,41%,15%,100%,102%,84%,61%,53%,100%,94%,61%,44%,29%,"% Remaining of Initial (n = 1) (SIF + Pancreatin, 0 min): 100%; % Remaining of Initial (n = 1) (SIF + Pancreatin, 15 min): <1.0%; % Remaining of Initial (n = 1) (SIF + Pancreatin, 30 min): <1.0%; % Remaining of Initial (n = 1) (SIF + Pancreatin, 60 min): <1.0%; % Remaining of Initial (n = 1) (SIF + Pancreatin, 120 min): <1.0%; % Remaining of Initial (n = 1) (SIF + Trypsin, 0 min): 100%; % Remaining of Initial (n = 1) (SIF + Trypsin, 15 min): 67%; % Remaining of Initial (n = 1) (SIF + Trypsin, 30 min): 60%; % Remaining of Initial (n = 1) (SIF + Trypsin, 60 min): 55%; % Remaining of Initial (n = 1) (SIF + Trypsin, 120 min): 43%; half-life at 1 μM [11]: 46 min; half-life at 1 μM [12]: 49 min; half-life at 1 μM [13]: 107 min; half-life at 1 μM [14]: 55 min; half-life at 1 μM [15]: < 1 min; half-life at 1 μM [16]: 93 min"
CC/C=C\C/C=C\C/C=C\C/C=C\C/C=C\CCCC(=O)OCCNC(=O)CCCCCCCCCCCCCCC [Compound I-5],100%,84%,63%,39%,15%,100%,94%,62%,43%,14%,100%,75%,59%,37%,23%,100%,103%,70%,48%,35%,"% Remaining of Initial (n = 1) (SIF + Pancreatin, 0 min): 100%; % Remaining of Initial (n = 1) (SIF + Pancreatin, 15 min): 13%; % Remaining of Initial (n = 1) (SIF + Pancreatin, 30 min): <1.0%; % Remaining of Initial (n = 1) (SIF + Pancreatin, 60 min): <1.0%; % Remaining of Initial (n = 1) (SIF + Pancreatin, 120 min): <1.0%; % Remaining of Initial (n = 1) (SIF + Trypsin, 0 min): 100%; % Remaining of Initial (n = 1) (SIF + Trypsin, 15 min): 81%; % Remaining of Initial (n = 1) (SIF + Trypsin, 30 min): 67%; % Remaining of Initial (n = 1) (SIF + Trypsin, 60 min): 44%; % Remaining of Initial (n = 1) (SIF + Trypsin, 120 min): 26%; half-life at 1 μM [11]: 44 min; half-life at 1 μM [12]: 45 min; half-life at 1 μM [13]: 47 min; half-life at 1 μM [14]: 65 min; half-life at 1 μM [15]: 5.1 min; half-life at 1 μM [16]: 56 min"
